Results published in patent publication US5290553A, “Alkaloids of picralima nitida used for treatment of protozoal diseases” (The United States of America as represented by the …, priority 1991, dated 1994).
Values after ≈ are worked out from the molar mass of the structure shown. Where two headings read alike, the source gives them in different places. One block for each compound: values may come before it.

How the values were obtained:
[1] = tested on: Plasmodium falciparum W-2 clone (Indochina); assay: In vitro antimalarial assay, W-2 clone (tritiated hypoxanthine uptake); type: cell-based; conditions: for IC50: Plasmodium falciparum, read-out: IC50, W-2 Clone
Method: (§1) The in vitro assays were performed by using a modification of the semi-automated microdilution technique described earlier in Desjardins et al.^29 and Milhous et al.^30 Two P. falciparum malaria parasite clones, designated as Indochina (W-2) and Sierra Leone (D-6), were utilized in susceptibility testing. The W-2 clone is resistant to chloroquine, pyrimethamine, sulfadoxine, and quinine, and the other clone is resistant to mefloquine. The test extracts were dissolved in dimethylsulfoxide (DMSO) and serially diluted with media. The uptake of tritiated hypoxanthine was used as an index of inhibition of parasite growth.
(§2) Two P. falciparum malaria parasite clones, designated as Indochina (W-2) and Sierra Leone (D-6), were utilized in susceptibility testing. The W-2 clone is resistant to chloroquine, pyrimethamine, sulfadoxine, and quinine, and the other clone is resistant to mafloquine.
(§3) The test extracts were dissolved in DMSO and serially diluted with media. The uptake of tritiated hypoxanthine was used an an index of inhibition of parasite growth.

[2] = tested on: Plasmodium falciparum D-6 clone (Sierra Leone); assay: In vitro antimalarial assay, D-6 clone (tritiated hypoxanthine uptake); type: cell-based; conditions: for IC50: Plasmodium falciparum, read-out: IC50, D-6 Clone
Method: as §1, §2, §3

avian malaria = conditions: in vivo; cited from earlier work
malaria = conditions: in vivo; cited from earlier work
[3] = relative to cocaine; cited from earlier work
[4] = tested on: Leishmania (Leishmania) chagasi promastigotes (MHOM/BR/84/BA-13); assay: Growth inhibition of leishmania promastigotes over 96 hours; type: cell-based
Method: A clinical isolate of visceral Leishmania (Leishmania) chagasi, MHOM/BR/84/BA-13, was used for this study. This isolate was selected because sensitivity to SbV was previously determined using RAM. MHOM/BR/84/BA-13 is sensitive to Pentostam (sodium antimony gluconate) at 6 μg/ml Sb (20 μg/ml drug); and to Glucantime (N-methyl-glucamine antimoniate) at 80 μg/ml Sb (286 μg/ml drug)
Promastigotes of L. chagasi were grown in a serum-free, defined medium, MM2^43. The MM2 medium contained 120 μg/ml protein (10 μg/ml human transferrin, 10 μg/ml human insulin, 100 μg/ml defatted bovine albumin), plus 10 μg/ml low density bovine lipoprotein. […] Cultures were maintained at 25° C. during growth and incubation with drug.
Promastigotes were maintained in log phase growth for 3 successive transfers (48-72 hours apart) prior to radiorespirometric testing. Test extracts (or PBSS plus drug solvent [DMSO], for parallel control cultures) was added 24 hours after the third promastigote transfer to fresh growth medium. Incubation in the presence of plant extracts was continued for 96 additional hours while the parasites remained in mid-log phase growth. The rest of the radiorespirometric procedure was conducted as previously described^45.

[5] = tested on: Trypanosoma brucei brucei; assay: In vivo antitrypanosomial activity, rat; conditions: 7 mg i.p.
[6] = tested on: Trypanosoma brucei brucei; assay: In vivo antitrypanosomial activity, mouse; conditions: 7 mg i.p.
[7] = tested on: W-2 and D-6 clones of Plasmodium falciparum; assay: In vitro antimalarial assay, statements on both clones; type: cell-based; conditions: P. falciparum clones
Method: as §1
The in vitro assays were performed by using a modification of the semi-automated microdilution technique described earlier (Desjardins et al., 1979; Milhous et al., 1985). Two P. falciparum malaria parasite clones, designated as Indochina (W-2) and Sierra Leone (D-6), were utilized in susceptibility testing. The W-2 clone is resistant to chloroquine, pyrimethamine, sulfadoxine, and quinine, and the other clone is resistant to mafloquine.
as §3

opiate receptor = conditions: from cell suspension culture of P. nitida; cited from earlier work
[8] = tested on: Leishmania (Leishmania) chagasi MHOM/BR/84/BA-13; conditions: previously determined; cited from earlier work
[9] = Table 5, alkaloids and reference drugs

Compound: CC=C1CN2CCC34c5ccccc5N(C)C35OCC4(C(=O)OC)C1CC25 (stereo not shown) [.PSI.-Aukuammigine]
IC50 [1]: 0.1 µg/mL (≈ 0.273 µM)
IC50 [2]: 0.83 µg/mL (≈ 2.26 µM)

IC50 [1, 9]: 1.24 µg/mL (≈ 3.8 µM)
IC50 [2, 9]: 4.7 µg/mL (≈ 14.4 µM)
Compound: CC[C@H]1[C@@H]2C[C@H]3[C@@H]4N(C)c5ccccc5[C@]45C[C@@H]([C@@H]2[C@H]5O)N3[C@@H]1O [Ajmaline, reference compound]

Compound: C/C=C1/CN2CC[C@]34C(=C(C(=O)OC)[C@H]1C[C@H]23)Nc1ccccc14 [Akuammicine]
IC50 [1, 9]: 0.73 µg/mL (≈ 2.26 µM)
IC50 [2, 9]: 0.45 µg/mL (≈ 1.4 µM)

Compound: C/C=C1/CN2CC[C@@]34c5cc(O)ccc5N(C)[C@]35OC[C@@]4(C(=O)OC)[C@@H]1C[C@H]25 [Akuammine]
IC50 [1, 9]: 0.66 µg/mL (≈ 1.73 µM)
IC50 [2, 9]: 0.95 µg/mL (≈ 2.48 µM)
activity against avian malaria (avian malaria): inactive against avian malaria
activity in clinical trials (malaria): inactive
local anesthetic action [3]: local anesthetic action comparable to that of cocaine

IC50 [1, 9]: 2.86 µg/mL (≈ 8.11 µM)
IC50 [2, 9]: 2.76 µg/mL (≈ 7.83 µM)
Compound: COC(=O)C1=CO[C@@H](C)[C@@H]2CN3CCc4c([nH]c5ccccc45)C3C[C@H]12 (stereo partly shown) [Alstonine (tetrahydro-)]

IC50 [1, 9]: 0.09 µg/mL
IC50 [2, 9]: 0.02 µg/mL
Compound: COC(=O)C1=CO[C@@H](C)[C@@H]2C[n+]3ccc4c([nH]c5ccccc54)c3C[C@H]12 [Alstonine]
inhibition of leishmania promastigotes, ranking ([4]; alkaloids isolated from the active fraction): greatest inhibition
concentration of the highest growth inhibition ([4]; leishmania promastigotes): 50 µg/mL
growth inhibition, dose relation ([4]; leishmania promastigotes): dose related activity

IC50 [1, 9]: 0.002 µg/mL (≈ 0.00708 µM)
IC50 [2, 9]: 0.004 µg/mL (≈ 0.0142 µM)
Compound: C[C@@H]1CC[C@H]2[C@@H](C)C(=O)O[C@@H]3O[C@@]4(C)CC[C@@H]1[C@]32OO4 [Artemisinin, reference compound]

Compound: N=C(N)c1ccc(N=NNc2ccc(C(=N)N)cc2)cc1 [Berenil]
Day of 0% Parasite Count [5]: 8 days
Day of 0% Parasite Count [6]: 6 days

Compound: CCN(CC)CCCC(C)Nc1ccnc2cc(Cl)ccc12 (stereo not shown) [Chloroquine, reference compound]
IC50 [1]: 0.04 µg/mL (≈ 0.125 µM)
IC50 [2]: 0.006 µg/mL (≈ 0.0188 µM)

Compound: C/C=C1/C[N@+]2(C)CC[C@@]34c5ccccc5N[C@]32[C@@H](O)C[C@@H]1[C@@]4(CO)C(=O)OC [Echitamine, reference compound]
IC50, W-2 Clone [1, 9]: 7.25 µg/mL
IC50, D-6 Clone [2, 9]: 4.68 µg/mL
antimalarial activity in vitro [7]: no activity

Compound: CC=C1CN2C3CC1C(CO)C2Cc1c3[nH]c2ccccc12 (stereo not shown) [PNF-S7]
IC50 [1, 9]: 10.6 µg/mL (≈ 36 µM)
IC50 [2, 9]: 7.6 µg/mL (≈ 25.8 µM)

Compound: CC=C1CN2C3CC45c6ccccc6NC4(O3)C2CC1C5(COC(C)=O)C(=O)OC (stereo not shown) [Picraline]
IC50 [1, 9]: 0.53 µg/mL (≈ 1.29 µM)
IC50 [2, 9]: 0.78 µg/mL (≈ 1.9 µM)

Compound: C/C=C1/CN2[C@H]3C[C@H]1[C@@H](CO)[C@@H]2Cc1c3[nH]c2ccc(O)cc12 [Sarpagine, reference compound]
IC50 [1, 9]: 29.2 µg/mL (≈ 94 µM)
IC50 [2, 9]: 16.6 µg/mL (≈ 53.6 µM)

Compound: COC(=O)[C@@H]1[C@H]2C[C@H]3c4[nH]c5ccccc5c4CCN3C[C@@H]2CC[C@@H]1O [Yohimbine, reference compound]
IC50 [1]: 6.16 µg/mL (≈ 17.4 µM)
IC50 [2]: 7.51 µg/mL (≈ 21.2 µM)

Compound: C=C1c2[nH]c3ccccc3c2CCN2CC[C@@H]1/C(=C\C)C2 [pericine]
CNS activity, opiate receptor binding (opiate receptor): CNS active

Compound: N-methyl-glucamine antimoniate [Glucantime]
concentration at which isolate is sensitive, as Sb [8]: 80 μg/ml Sb
concentration at which isolate is sensitive, as drug [8]: 286 μg/ml drug

Compound: sodium antimony gluconate [Pentostam]
concentration at which isolate is sensitive, as Sb [8]: 6 μg/ml Sb
concentration at which isolate is sensitive, as drug [8]: 20 μg/ml drug
